Measurements as given in the NIST ThermoML archive (doi:10.1016/j.jct.2008.03.013).
“And” between values parts separate entries of the source, which are not always exact repeats. Identical values can stand only once.

Tests used:
[1] = refractive index (Na D-line) (dimensionless); conditions: 298.15 K; 101.33 kPa; Liquid; Standard Abbe refractometry
[2] = 100 kPa, Liquid
[3] = refractive index (Na D-line) (dimensionless); xn = mol fraction of the nth substance listed; conditions: 298.15 K, 100 kPa, Liquid, Standard Abbe refractometry
[4] = xn = mol fraction of the nth substance listed; conditions: 100 kPa, Liquid

CCCCn1cc[n+](C)c1.COS(=O)(=O)[O-] [1-butyl-3-methylimidazolium methyl sulfate]
Conditions	refractive index
[1]	1.47792

[2]
Conditions	mass density [kg/m3]	viscosity
298.15 K	1213.43	182.3 mPa·s
313.15 K	1203.48	84.8 mPa·s and 84.7 mPa·s
328.15 K	1193.59	45.35 mPa·s

CCO [ethanol] + CCCCn1cc[n+](C)c1.COS(=O)(=O)[O-]
Conditions	refractive index
[3], x1 = 1	1.36023

[4], x1 = 1
Conditions	mass density [kg/m3]	viscosity [mPa·s]
298.15 K	785.46	1.082
313.15 K	772	0.827
328.15 K	758.55	0.641

CCCCn1cc[n+](C)c1.COS(=O)(=O)[O-] [1-butyl-3-methylimidazolium methyl sulfate] + O
[3]
Conditions	refractive index
x2 = 0	1.47792
x2 = 0.0325	1.47746
x2 = 0.1703	1.47584
x2 = 0.2989	1.47341
x2 = 0.4104	1.47032
x2 = 0.4774	1.46814
x2 = 0.5886	1.463
x2 = 0.6859	1.45603
x2 = 0.7856	1.44395
x2 = 0.8899	1.41842
x2 = 0.9466	1.38937

[4]
Conditions	mass density, 298.15 K [kg/m3]	mass density, 313.15 K [kg/m3]	mass density, 328.15 K [kg/m3]	viscosity, 298.15 K [mPa·s]	viscosity, 313.15 K [mPa·s]	viscosity, 328.15 K [mPa·s]
x2 = 0	1213.43	1203.48	1193.59	182.3	84.8	45.35
x2 = 0.0325	1212.91	1202.96	1193.03	177	82.8	44.8
x2 = 0.1703	1211.05	1201.02	1190.99	137	68.9	41.09
x2 = 0.2989	1208.33	1198.3	1188.25	95.4	51.5	33.85
x2 = 0.4104	1204.62	1194.57	1184.54	65.5	35.77	23.52
x2 = 0.4774	1201.72	1191.55	1181.33	50.2	27.55	18.25
x2 = 0.5886	1194.68	1184.43	1174.25	31.93	18.4	11.98
x2 = 0.6859	1185.23	1174.8	1164.26	20.28	12.03	7.862
x2 = 0.7856	1168.21	1157.61	1146.83	11.42	7.027	4.738
x2 = 0.8899	1130.52	1120.17	1109.5	5.071	3.296	2.306
x2 = 0.9466	1085.81	1076.83	1067.17	2.597	1.763	1.281
